Converted amounts (≈) assume the structure as drawn. Read-outs that look alike come from different tables or passages of the source.
Assays:
E. coli [1] = test: Minimum bactericidal concentration; type: cell-based, Escherichia coli
E. faecalis [2] = test: Minimum bactericidal concentration; type: cell-based, Enterococcus faecalis
K. pneumoniae [3] = test: Growth inhibition screening (broth dilution); type: cell-based, Klebsiella pneumonia; conditions: Klebsiella pneumoniae
Procedure: (§1) In vitro screening of the compounds (PS1–14) was performed to assess the antibacterial activity against three Gram-positive (Staphylococcus aureus, Enterococcus faecalis and Bacillus subtilis,) and three Gram-negative (Pseudomonas aeruginosa, Klebsiella pneumonia and Escherichia coli) bacterial strains using the standard NCCLS broth dilution assay. The study’s standard drugs were ciprofloxacin (CIP) and ampicillin (AMP). Compounds were dissolved in a polar solvent (DMSO) and distributed into a 96-well plate in 200 µL of nutrient broth medium, with a final concentration of the compounds […] in each well. The bacterial cells (about 2.5 × 10^5 cells/mL) were inoculated into each well and incubated at 37 °C overnight. After incubation, the growth was measured by turbidity of the culture at 590 nm by spectrophotometer.

SpMetAP1a = SpMetAP1a (Streptococcus pneumoniae, UniProt Q8DPV1); test: MetAP enzyme inhibition, Morrison Ki (Met-AMC fluorescence); type: biochemical; conditions: Morrison Ki method
Chain of SpMetAP1a (Q8DPV1 entry or part of it): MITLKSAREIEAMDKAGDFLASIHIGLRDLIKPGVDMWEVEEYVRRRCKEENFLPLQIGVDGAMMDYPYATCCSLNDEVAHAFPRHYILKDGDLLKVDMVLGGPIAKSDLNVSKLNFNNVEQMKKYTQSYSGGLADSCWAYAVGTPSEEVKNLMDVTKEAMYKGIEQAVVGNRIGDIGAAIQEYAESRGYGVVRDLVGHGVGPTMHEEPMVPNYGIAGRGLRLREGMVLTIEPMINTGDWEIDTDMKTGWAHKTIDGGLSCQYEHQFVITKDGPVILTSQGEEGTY

K. pneumoniae [4] = test: Minimum bactericidal concentration; type: cell-based, Klebsiella pneumonia
P. aeruginosa [5] = test: Minimum inhibitory concentration (broth dilution); type: cell-based; conditions: Pseudomonas aeruginosa, alone
P. aeruginosa [6] = test: Minimum bactericidal concentration; type: cell-based, Pseudomonas aeruginosa
S. aureus [7] = test: Minimum inhibitory concentration (broth dilution); type: cell-based; conditions: Staphylococcus aureus, alone
E. coli [8] = test: Growth inhibition screening (broth dilution); type: cell-based, Escherichia coli; conditions: Escherichia coli
Procedure: as §1

MtMetAP1c = biological target: T1, MtMetAP1c (Mycobacterium tuberculosis, UniProt P9WK19); test: MetAP enzyme inhibition, Morrison Ki (Met-AMC fluorescence); type: biochemical, M. tuberculosis; conditions: Morrison Ki method
T1 construct: made in house
T1 sequence (P9WK19 whole entry): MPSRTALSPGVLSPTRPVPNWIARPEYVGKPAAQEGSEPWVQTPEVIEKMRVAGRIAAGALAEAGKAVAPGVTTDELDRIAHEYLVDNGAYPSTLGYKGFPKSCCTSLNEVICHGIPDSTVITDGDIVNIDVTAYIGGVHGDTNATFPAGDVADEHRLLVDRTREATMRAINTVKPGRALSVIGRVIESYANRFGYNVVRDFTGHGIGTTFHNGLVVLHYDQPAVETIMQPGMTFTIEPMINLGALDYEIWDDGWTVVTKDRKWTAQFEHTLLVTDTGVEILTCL
Procedure: MetAP appears to serve a vital role in the co- or post-translational modification of proteins, making it essential for bacterial cell metabolism and survival. In this study, all enzymes, which were used for this study, including MtMetAP1c (M. tuberculosis), EfMetAP1a (E. faecalis), SpMetAP1a (S. pneumoniae) and HsMetAP1b (H. sapiens) enzymes, were expressed and purified in our lab as previously reported. All compounds prepared 10 mM stocks in DMSO and were used for enzyme inhibition studies. The concentration of each enzyme is adjusted such that they have similar reaction rates (HsMetAp1b, 1 µM; SpMetAP1a, 5 µM; EfMetAP1a, 1 µM; MtMetAP1c, 1 µM;) as reported earlier. All assays were performed in […] reaction containing 50 mM HEPES (pH 7.5 for SpMetAP1a and HsMetAP1b; 8.0 for EfMetAP1a, MtMetAP1c, […]), 150 mM NaCl, and CoCl2 (three molar equivalents of corresponding enzymes). The reaction was started by adding 50 μM L-Methionine 7-amido-4-methyl coumarin (Met-AMC) and continuously monitoring the fluorescence of released 7-amino-4-methyl coumarin (AMC) (380 nm excitation and 460 nm emission) in a microplate multimode reader (TECAN, Austria). The maximum percentage of inhibition against enzymes is calculated at […] compound concentration. […] The Ki values were determined according to the Morrison method using three different concentrations of substrates and ten different concentrations of the inhibitor. All experiments were performed in triplicate. GraphPad Prism version 8.0.0 (San Diego, CA, USA) was used to determine all the kinetic parameters.

K. pneumoniae [9] = test: Minimum inhibitory concentration (broth dilution); type: cell-based, Klebsiella pneumonia; conditions: alone
B. subtilis [10] = test: Minimum bactericidal concentration; type: cell-based, Bacillus subtilis
EfMetAP1a = EfMetAP1a (Enterococcus faecalis, UniProt Q832M5); test: MetAP enzyme inhibition, Morrison Ki (Met-AMC fluorescence); type: biochemical; conditions: Morrison Ki method
Chain of EfMetAP1a (Q832M5 entry or part of it): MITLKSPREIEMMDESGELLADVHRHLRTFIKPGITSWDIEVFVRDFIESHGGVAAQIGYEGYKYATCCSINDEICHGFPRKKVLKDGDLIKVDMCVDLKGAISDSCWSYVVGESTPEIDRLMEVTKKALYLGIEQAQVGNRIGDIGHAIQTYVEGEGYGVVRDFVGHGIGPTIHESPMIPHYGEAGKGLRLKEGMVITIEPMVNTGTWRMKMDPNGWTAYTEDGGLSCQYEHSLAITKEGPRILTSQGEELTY

P. aeruginosa [11] = test: Growth inhibition screening (broth dilution); type: cell-based, Pseudomonas aeruginosa; conditions: Pseudomonas aeruginosa
Procedure: as §1

E. coli [12] = test: Minimum inhibitory concentration (broth dilution); type: cell-based, Escherichia coli; conditions: Escherichia coli, alone, read-out: MIC
B. subtilis [13] = test: Growth inhibition screening (broth dilution); type: cell-based, Bacillus subtilis; conditions: Bacillus subtilis
Procedure: as §1

E. faecalis [14] = test: Growth inhibition screening (broth dilution); type: cell-based, Enterococcus faecalis; conditions: Enterococcus faecalis
Procedure: as §1

B. subtilis [15] = test: Minimum inhibitory concentration (broth dilution); type: cell-based; conditions: Bacillus subtilis, alone
HsMetAP1b = biological target: T2, HsMetAP1b (Homo sapiens, UniProt P53582); test: MetAP enzyme inhibition, Morrison Ki (Met-AMC fluorescence); type: biochemical, H. sapiens; conditions: Morrison Ki method
T2 construct: made in house

S. aureus [16] = test: Growth inhibition screening (broth dilution); type: cell-based, Staphylococcus aureus; conditions: Staphylococcus aureus
Procedure: as §1

E. faecalis [17] = test: Minimum inhibitory concentration (broth dilution); type: cell-based; conditions: Enterococcus faecalis, alone
S. aureus [18] = test: Minimum bactericidal concentration; type: cell-based, Staphylococcus aureus

## O=C1Nc2cc(Cl)ccc2/C1=N\NC(=O)c1cc(-c2cccc(Br)c2)n[nH]1 [PS3, (E)-3-(3-Bromophenyl)-N′-(6-Chloro-2-Oxoindolin-3-Ylidene)-1H-Pyrazole-5-Carbohydrazide]
E. coli [1]
  MBC/MIC Ratio (R*): 2
E. coli [1]; Escherichia coli
  MBC: 256 µg/mL (≈ 576 µM)
E. faecalis [2]
  MBC/MIC Ratio (R*): 2
E. faecalis [2]; Enterococcus faecalis
  MBC: 256 µg/mL (≈ 576 µM)
K. pneumoniae [3]
  inhibition at 250 µg/mL: 97%
SpMetAP1a
  Ki: 1.79 ± 0.08 µM
K. pneumoniae [4]
  MBC/MIC Ratio (R*): 8
K. pneumoniae [4]; Klebsiella pneumoniae
  MBC: 512 µg/mL (≈ 1150 µM)
P. aeruginosa [5]
  MIC: 32 µg/mL (≈ 72 µM)
P. aeruginosa [6]
  MBC/MIC Ratio (R*): 8
P. aeruginosa [6]; Pseudomonas aeruginosa
  MBC: 256 µg/mL (≈ 576 µM)
S. aureus [7]
  MIC: 128 µg/mL (≈ 288 µM)
E. coli [8]
  inhibition at 250 µg/mL: 89%
MtMetAP1c
  Ki: 2.32 ± 0.28 µM
K. pneumoniae [9]; Klebsiella pneumoniae, read-out: MIC
  MIC: 32 µg/mL (≈ 72 µM)
K. pneumoniae [9]
  MIC: 64 µg/mL (≈ 144 µM)
B. subtilis [10]
  MBC/MIC Ratio (R*): 2
B. subtilis [10]; Bacillus subtilis
  MBC: 128 µg/mL (≈ 288 µM)
EfMetAP1a
  Ki: 4.63 ± 0.87 µM
other
  melting point: 182 to 185 °C
P. aeruginosa [11]
  inhibition at 250 µg/mL: 90%
E. coli [12]
  MIC: 128 µg/mL (≈ 288 µM)
B. subtilis [13]
  inhibition at 250 µg/mL: 89%
E. faecalis [14]
  inhibition at 250 µg/mL: 60%
B. subtilis [15]
  MIC: 64 µg/mL (≈ 144 µM)
HsMetAP1b
  Ki: 332 ± 10.9 µM
S. aureus [16]
  inhibition at 250 µg/mL: 64%
E. faecalis [17]
  MIC: 128 µg/mL (≈ 288 µM)
S. aureus [18]
  MBC/MIC Ratio (R*): 1
S. aureus [18]; Staphylococcus aureus
  MBC: 128 µg/mL (≈ 288 µM)
